Where a name gives a salt, the structure may show the parent alone.
Legend:
[1] = system: human monocyte stimulated cytokine production (TNF-α); test: Monocyte assay (LPS-stimulated TNF-α production); format: cell-based; settings: 24 h, 200 ng/mL LPS, TNF-α by ELISA
Procedure, shortened: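 Human CD14+ monocytes were purified from blood and plated at 1×10^6 cells/mL in RPMI 1640 with 10% FBS. Compound was added 30 min before stimulation with 200 ng/mL LPS (0.1% DMSO final), followed by 24 hrs at 37 C. Supernatant TNF-α was measured by ELISA, and viability by trypan blue exclusion.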

[2] = target: T1, Recombinant human IKKβ (residues 1-737) (Homo sapiens, UniProt O14920); test: IKK2 assay (TR-FRET); format: biochemical; settings: ATP 1 μM final, read-out: pIC50 against IKK2 (converted)
T1 construct: Recombinant human IKKβ (residues 1-737); GST (C); made in house
T1 sequence (O14920 1-737): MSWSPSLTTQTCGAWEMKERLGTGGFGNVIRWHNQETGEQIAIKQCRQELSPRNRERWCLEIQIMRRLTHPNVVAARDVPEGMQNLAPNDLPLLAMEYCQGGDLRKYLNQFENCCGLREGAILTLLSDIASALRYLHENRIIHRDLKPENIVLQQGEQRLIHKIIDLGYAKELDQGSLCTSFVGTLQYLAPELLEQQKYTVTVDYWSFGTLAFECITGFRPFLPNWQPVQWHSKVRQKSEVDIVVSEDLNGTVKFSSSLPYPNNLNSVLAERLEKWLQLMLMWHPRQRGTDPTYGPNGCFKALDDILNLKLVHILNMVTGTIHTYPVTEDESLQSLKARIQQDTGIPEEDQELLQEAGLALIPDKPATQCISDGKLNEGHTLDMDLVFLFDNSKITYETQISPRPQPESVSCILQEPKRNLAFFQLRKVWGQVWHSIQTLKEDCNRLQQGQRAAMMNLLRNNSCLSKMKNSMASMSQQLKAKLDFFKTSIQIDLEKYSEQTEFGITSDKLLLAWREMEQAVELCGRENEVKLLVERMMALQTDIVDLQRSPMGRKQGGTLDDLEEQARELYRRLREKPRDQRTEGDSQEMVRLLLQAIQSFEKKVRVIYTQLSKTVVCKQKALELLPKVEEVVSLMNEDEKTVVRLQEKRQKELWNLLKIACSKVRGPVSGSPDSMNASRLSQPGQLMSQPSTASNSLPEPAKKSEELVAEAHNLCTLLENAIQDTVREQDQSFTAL
Procedure, shortened: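 Baculovirus-expressed C-terminal GST-tagged IKKβ (0.5-5 nM final) in HEPES pH 7.4, MgCl2, CHAPS, DTT, BSA with 1.7% DMSO; 25 nM GST-IB substrate and 1 μM ATP, 15 min at room temperature. EDTA stop; phospho-Ser32/36 detected by Eu-antibody/APC-anti-GST TR-FRET, 665/620 nm ratio.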

Compound | IC50 [1] [µM] | IC50 [2] [µM]
CCS(=O)(=O)N1CCC(c2c[nH]c3c(C(N)=O)cc(-c4cccc(C(C)NC)c4)cc23)CC1 (stereo not shown) [Example 292, 3-[1-(ethylsulfonyl)-4-piperidinyl]-5-{3-[1-(methylamino)ethyl]phenyl}-1H-indole-7-carboxamide trifluoroacetate] | ≤ 1.5 | ≤ 10
CCS(=O)(=O)N1CCC(c2c[nH]c3c(C(N)=O)cc(-c4cccc(C(C)NC(C)C)c4)cc23)CC1 (stereo not shown) [Example 293, 3-[1-(ethylsulfonyl)-4-piperidinyl]-5-(3-{1-[(1-methylethyl)amino]ethyl}phenyl)-1H-indole-7-carboxamide trifluoroacetate] | ≤ 1.5 | ≤ 10
CCS(=O)(=O)N1CCC(c2c[nH]c3c(C(N)=O)cc(-c4cccc(C(C)NCC(C)C)c4)cc23)CC1 (stereo not shown) [Example 294, 3-[1-(ethylsulfonyl)-4-piperidinyl]-5-(3-{1-[(2-methylpropyl)amino]ethyl}phenyl)-1H-indole-7-carboxamide trifluoroacetate] | ≤ 1.5 | ≤ 10
CCS(=O)(=O)N1CCC(c2c[nH]c3c(C(N)=O)cc(-c4cccc(C(C)NC5CCC5)c4)cc23)CC1 (stereo not shown) [Example 295, 5-{3-[1-(cyclobutylamino)ethyl]phenyl}-3-[1-(ethylsulfonyl)-4-piperidinyl]-1H-indole-7-carboxamide trifluoroacetate] | ≤ 1.5 | ≤ 10
CCS(=O)(=O)N1CCC(c2c[nH]c3c(C(N)=O)cc(-c4cccc(C(C)N5CCCC5)c4)cc23)CC1 (stereo not shown) [Example 296, 3-[1-(ethylsulfonyl)-4-piperidinyl]-5-{3-[1-(1-pyrrolidinyl)ethyl]phenyl}-1H-indole-7-carboxamide trifluoroacetate] | ≤ 1.5 | ≤ 10
CCS(=O)(=O)N1CCC(c2c[nH]c3c(C(N)=O)cc(-c4cccc(C5CSCCN5)c4)cc23)CC1 (stereo not shown) [Example 297, 3-[1-(ethylsulfonyl)-4-piperidinyl]-5-[3-(3-thiomorpholinyl)phenyl]-1H-indole-7-carboxamide trifluoroacetate] | ≤ 1.5 | ≤ 10
CCS(=O)(=O)N1CCC(c2c[nH]c3c(C(N)=O)cc(-c4ccc(C5CNCCN5)s4)cc23)CC1 (stereo not shown) [Example 298, 3-[1-(ethylsulfonyl)-4-piperidinyl]-5-[5-(2-piperazinyl)-2-thienyl]-1H-indole-7-carboxamide trifluoroacetate] | ≤ 1.5 | ≤ 10
CCS(=O)(=O)N1CCC(c2c[nH]c3c(C(N)=O)cc(-c4ccc(C5CNCCN5)cc4)cc23)CC1 (stereo not shown) [Example 299, 3-[1-(ethylsulfonyl)-4-piperidinyl]-5-[4-(2-piperazinyl)phenyl]-1H-indole-7-carboxamide trifluoroacetate] | > 1 | ≤ 10
CCS(=O)(=O)N1CCC(c2c[nH]c3c(C(N)=O)cc(-c4cccc(C5CNCCN5)c4)cc23)CC1 (stereo not shown) [Example 300, 3-[1-(ethylsulfonyl)-4-piperidinyl]-5-[3-(2-piperazinyl)phenyl]-1H-indole-7-carboxamide trifluoroacetate] | > 1 | ≤ 10
CCS(=O)(=O)N1CCC(c2c[nH]c3c(C(N)=O)cc(-c4ccc(N5CCOCC5)nn4)cc23)CC1 [Example 301, 3-[1-(ethylsulfonyl)-4-piperidinyl]-5-[6-(4-morpholinyl)-3-pyridazinyl]-1H-indole-7-carboxamide trifluoroacetate] | > 1 | ≤ 10
CCS(=O)(=O)N1CCC(c2c[nH]c3c(C(N)=O)cc(-c4ccc(N5CCCC5)nn4)cc23)CC1 [Example 302, 3-[1-(ethylsulfonyl)-4-piperidinyl]-5-[6-(1-pyrrolidinyl)-3-pyridazinyl]-1H-indole-7-carboxamide trifluoroacetate] | > 1 | ≤ 10
CCS(=O)(=O)N1CCC(c2c[nH]c3c(C(N)=O)cc(-c4ccccc4CNC)cc23)CC1 [Example 303, 3-[1-(ethylsulfonyl)-4-piperidinyl]-5-{2-[(methylamino)methyl]phenyl}-1H-indole-7-carboxamide trifluoroacetate] | > 1 | ≤ 10
CCS(=O)(=O)N1CCC(c2c[nH]c3c(C(N)=O)cc(-c4cccc(CNCc5cccs5)c4)cc23)CC1 [Example 304, 3-[1-(ethylsulfonyl)-4-piperidinyl]-5-(3-{[(2-thienylmethyl)amino]methyl}phenyl)-1H-indole-7-carboxamide trifluoroacetate] | ≤ 1.5 | ≤ 10
CCS(=O)(=O)N1CCC(c2c[nH]c3c(C(N)=O)cc(-c4cccc(CNCc5ccc(C)o5)c4)cc23)CC1 [Example 305, 3-[1-(ethylsulfonyl)-4-piperidinyl]-5-[3-({[(5-methyl-2-furanyl)methyl]amino}methyl)phenyl]-1H-indole-7-carboxamide trifluoroacetate] | ≤ 1.5 | ≤ 10
CCS(=O)(=O)N1CCC(c2c[nH]c3c(C(N)=O)cc(-c4cccc(CNC[C@H]5CCCO5)c4)cc23)CC1 [Example 306, 3-[1-(ethylsulfonyl)-4-piperidinyl]-5-[3-({[(2R)-tetrahydro-2-furanylmethyl]amino}methyl)phenyl]-1H-indole-7-carboxamide trifluoroacetate] | ≤ 1.5 | ≤ 10
CCS(=O)(=O)N1CCC(c2c[nH]c3c(C(N)=O)cc(-c4cccc(CNC[C@@H]5CCCO5)c4)cc23)CC1 [Example 307, 3-[1-(ethylsulfonyl)-4-piperidinyl]-5-[3-({[(2S)-tetrahydro-2-furanylmethyl]amino}methyl)phenyl]-1H-indole-7-carboxamide trifluoroacetate] | ≤ 1.5 | ≤ 10
CCS(=O)(=O)N1CCC(c2c[nH]c3c(C(N)=O)cc(-c4cccc(CNCC(C)(C)C)c4)cc23)CC1 [Example 308, 5-(3-{[(2,2-dimethylpropyl)amino]methyl}phenyl)-3-[1-(ethylsulfonyl)-4-piperidinyl]-1H-indole-7-carboxamide trifluoroacetate] | ≤ 1.5 | ≤ 10
CCC(C)CNCc1cccc(-c2cc(C(N)=O)c3[nH]cc(C4CCN(S(=O)(=O)CC)CC4)c3c2)c1 (stereo not shown) [Example 309, 3-[1-(ethylsulfonyl)-4-piperidinyl]-5-(3-{[(2-methylbutyl)amino]methyl}phenyl)-1H-indole-7-carboxamide] | ≤ 1.5 | ≤ 10
CC[C@H](C)CNCc1cccc(-c2cc(C(N)=O)c3[nH]cc(C4CCN(S(=O)(=O)CC)CC4)c3c2)c1 [Example 310, 3-[1-(ethylsulfonyl)-4-piperidinyl]-5-[3-({[(2S)-2-methylbutyl]amino}methyl)phenyl]-1H-indole-7-carboxamide] | ≤ 1.5 | ≤ 10
CCS(=O)(=O)N1CCC(c2c[nH]c3c(C(N)=O)cc(-c4cccc(CN[C@H](C)C(C)(C)C)c4)cc23)CC1 [Example 311, 3-[1-(ethylsulfonyl)-4-piperidinyl]-5-[3-({[(1R)-1,2,2-trimethylpropyl]amino}methyl)phenyl]-1H-indole-7-carboxamide] | ≤ 1.5 | ≤ 10
CCS(=O)(=O)N1CCC(c2c[nH]c3c(C(N)=O)cc(-c4cc(F)cc(CNC[C@@H]5CCCO5)c4)cc23)CC1 [Example 312, 3-[1-(ethylsulfonyl)-4-piperidinyl]-5-[3-fluoro-5-({[(2S)-tetrahydro-2-furanylmethyl]amino}methyl)phenyl]-1H-indole-7-carboxamide trifluoroacetate] | ≤ 1.5 | ≤ 10
CCS(=O)(=O)N1CCC(c2c[nH]c3c(C(N)=O)cc(-c4cc(F)cc(CNC[C@H]5CCCO5)c4)cc23)CC1 [Example 313, 3-[1-(ethylsulfonyl)-4-piperidinyl]-5-[3-fluoro-5-({[(2R)-tetrahydro-2-furanylmethyl]amino}methyl)phenyl]-1H-indole-7-carboxamide trifluoroacetate] | ≤ 1.5 | ≤ 10
CCS(=O)(=O)N1CCC(c2c[nH]c3c(C(N)=O)cc(-c4cc(F)cc(CN[C@@H](C)C(C)C)c4)cc23)CC1 [Example 314, 5-[3-({[(1S)-1,2-dimethylpropyl]amino}methyl)-5-fluorophenyl]-3-[1-(ethylsulfonyl)-4-piperidinyl]-1H-indole-7-carboxamide] | ≤ 1.5 | ≤ 10

Reference: patent US8063071B2 (GlaxoSmithKline, LLC, priority 2007, dated 2011)
